Here are results for one substance from US7038036B2, “Oligonucleotides labeled with stable isotopes and a method for detecting the same” (Taiyo Nippon Sanso Corporation, priority 1999, dated 2006).

This series can be described thus: NMR detection of 13C/15N-labeled RNA in mouse serum sampled three hours after inoculation into the tail. It counts as in vivo, mice (BALB/cAnNCr). As to conditions: for signals derived from base pairs, 500 MHz 1H-NMR spectra of exchangeable protons (imino protons) / signals derived from nucleic acid bases, 500 MHz 1H-NMR spectra of non-exchangeable protons (9 to 6.5 ppm): 25° C. The method, then: Four female SPF/VAF mice (BALB/cAnNCr, 8 weeks old, No. 1 to No. 4) supplied by Charles River Japan, Inc. were used for the experiment.
The abovementioned oligonucleotide (5 mg) was dissolved in 120 μl of a physiological saline solution to prepare four […] samples. Two samples were administered without a drug delivery system. The abovementioned histone subunit mixture was added to the remaining two samples to form a complex. • Sample 1: ^13C—^15N-labeled RNA (inoculated into and sampled from No. 1 mouse) • Sample 2: ^13C—^15N-labeled RNA (inoculated into and sampled from No. 2 mouse) • Sample 3: the complex of ^13C—^15N-labeled RNA and the drug delivery system (inoculated into and sampled from No. 3 mouse) • Sample 4: the complex of ^13C—^15N-labeled RNA and the drug delivery system (inoculated into and sampled from No. 4 mouse)
Each sample solution (100 μl), which was adjusted to 62.5 mg/kg, was inoculated into the tail of the abovementioned mice. Three hours after the inoculation, the mice were anesthetized with ether and about 1 ml of whole blood was sampled from the heart. This whole blood was allowed to stand at room temperature for 30 minutes, and then centrifuged at 1,500 rpm at room temperature for 15 minutes. Supernatant serum obtained by the centrifugation was subjected to NMR measurement as follows. Heavy water (20 μl) was added to the samples (400 μl each) obtained by the abovementioned centrifugation, and the measurement of NMR spectra was carried out at 25° C. A DRX-500 NMR spectrometer (BRUKER) was used for the measurement. Pre-saturation was carried out for the measurement of non-exchangeable protons and jump-and-return pulses were used for the measurement of exchangeable imino proton spectra.

The mark [1] stands for this setting: mouse serum, three hours after inoculation, 62.5 mg/kg, 62.5 mg/kg.
[2] abbreviates: mouse serum, three hours after inoculation, 62.5 mg/kg, listed as Sample 2, 62.5 mg/kg.

“Also recorded” adds a separate entry of the source.

As for “Sample 1: oligonucleotide comprising 43 bases shown in SEQ ID No. 1, RNA labeled with 13C and 15N, administered without a drug delivery system (antisense GGGAGAGGGCAACCUGACCUGUUAUCAUCGCAAGAAGCUUCCG; RNA, phosphodiester; uniformly 13C/15N isotope-labeled ribonucleotides)”, the “detection of the oligonucleotide by NMR” value was “entire length of the oligonucleotide was detected” (complex with the drug delivery system (histone subunit mixture) formed, mouse serum, three hours after inoculation) and “barely detected” (no complex with the drug delivery system formed, mouse serum, three hours after inoculation). Besides, under “mouse serum, three hours after inoculation, 62.5 mg/kg”, the “13C-1H HMQC spectra of non-exchangeable protons” value was “Only noise, and no spectrum derived from RNA”. The “signals derived from base pairs, 500 MHz 1H-NMR spectra of exchangeable protons (imino protons)” value under setting [1] was “Absolutely no signal; also recorded: barely detected” and the “signals derived from base pairs, 500 MHz 1H-NMR spectra of exchangeable protons (imino protons)” value under setting [2] is “Absolutely no signal; also recorded: barely detected”. Also, the “signals derived from nucleic acid bases, 500 MHz 1H-NMR spectra of non-exchangeable protons (9 to 6.5 ppm)” value is, setting by setting: under setting [1], “only extremely weak signals; also recorded: barely detected”; under setting [2], “only extremely weak signals; also recorded: barely detected”. The “time the antisense chain existed in the blood” value (when the drug delivery system was used, mice) is “up to 3 hours”. The “decomposition of the RNA present in the blood” value (when the drug delivery system was used, mice, three hours after inoculation) is on record as “did not undergo partial decomposition”.
